{"source": "patent US5321023A", "about": "“Pyridoindolobenzodiazepines and derivatives as antipsychotics” (The Du Pont Merck Pharmaceutical Co., priority 1992, dated 1994)"}
{"test_system": "rat", "test": "Conditioned Avoidance Responding in Rat", "assay_type": "in vivo, rat (male CDF)", "details": "inhibition of conditioned avoidance responding, oral, tested 30-360 minutes after administration, % of vehicle control, read-out: Peak ED50", "text": "Conditioned Avoidance Responding in Rat\nThe procedure utilized is a modification of the procedure of Cook and Weidley (Ann. NY Acad Sci.66: 740-752, 1957).\nApparatus: A Coulbourn Instruments large modular test cage (25×30×30 cm) with a pole suspended from the center of the ceiling and a stainless steel grid floor. A 0.75 mA pulsed current (250 msec on, 750 msec off) is delivered to the grid floor by a Coulbourn Instruments programmable shocker.\nAnimals: Male CDF rats are purchased from Charles River Breeding Laboratories (Wilmington, Mass.).\nTest Procedure: Each trial lasts 25 seconds. Ten seconds after the rat is placed in the testing apparatus, footshock is delivered for 15 seconds. The rat is immediately removed from the testing apparatus. If the rat climbs the pole within the first 10 seconds, footshock is avoided and an avoidance response is recorded. If the rat climbs the pole during the footshock period, an escape response is recorded. If the animal fails to climb the pole during the 25 second trial period, an escape failure is recorded.\nDrug testing is initiated after rats are well trained to consistently avoid footshock. Rats are tested for conditioned avoidance responding at various time intervals (30-360 minutes) after oral administration of test compound.\nFor each dose of test compound, inhibition of conditioned avoidance responding is expressed as a percentage of the corresponding Drug Vehicle (control) value. The percent antagonism is used to calculate ED50 values when appropriate.", "units": {"ED50": "mg/kg"}}
{"smiles": "Cc1cc2c3c(c1)c1c(n3-c3ccc(Cl)cc3NC2=O)CCN(C)C1", "note": "[Example 1, 11-chloro-1,2,3,4,8,9-hexahydro-3,6-dimethylpyrido[4',3':2,3]indolo[1,7-ab][1,5]benzodiazepin-8(9H)-one]", "ED50": "≤ 20"}
{"smiles": "Cc1cc2c3c(c1)c1c(n3-c3ccc(Cl)cc3NC2)CCN(C)C1", "note": "[Example 23, 11-chloro-1,2,3,4,8,9-hexahydro-3,6-dimethylpyrido[4',3':2,3]indolo[1,7-ab][1,5]benzodiazepine]", "ED50": "≤ 20"}
{"smiles": "Cc1cc2c3c(c1)c1c(n3-c3ccc(C(F)(F)F)cc3NC2=O)CCN(C)C1", "note": "[Example 3]", "ED50": "20 to 50"}
{"smiles": "Cc1cc2c3c(c1)c1c(n3-c3ccc(C(F)(F)F)cc3NC2)CCN(C)C1", "note": "[Example 25]", "ED50": "≤ 20"}
